Results from patent US20090042910A1, “QUINOLINE DERIVATIVES FOR TREATING CANCER” (priority 2006, published 2009).

Key:
PDGFRβ = molecular target: T1, PDGFRβ (Homo sapiens, UniProt P09619); test: In vitro phospho-Tyr751 PDGFRβ ELISA assay in MG63 osteosarcoma cells (Test b); assay type: cell-based; conditions: MG63 cells stimulated with PDGFBB, read-out: IC50 versus phospho-Tyr751 formation in PDGFRβ
T1 construct: endogenous in cells; host or cells: MG63 osteosarcoma cells (ATCC)
Method: This assay uses a conventional ELISA method to determine the ability of test compounds to inhibit phosphorylation of tyrosine in PDGFRβ.
An MG63 osteosarcoma cell line [American Type Culture Collection (ATCC) CCL 1427] was routinely maintained at 37° C. with 7.5% CO2 in Dulbecco's modified Eagle's growth medium (DMEM; Sigma-Aldrich; Catalogue No. D6546) containing 10% foetal calf serum (FCS; Sigma-Aldrich; Catalogue No. F7524) and 2 mM L-glutamine (Invitrogen Ltd., Paisley, UK; Catalogue No. 25030-024).
For the assay, the cells were detached from the culture flask using a trypsin/ethylenediaminetetraacetic acid (EDTA) mixture (Invitrogen Ltd.; Catalogue No. 15400-054) and resuspended in a test medium comprising DMEM without phenol red (Sigma-Aldrich; Catalogue No. D5921) containing 1% charcoal-stripped foetal calf serum (FCS) (Sigma-Aldrich; Catalogue No. F7524, stripped by incubation with dextran-coated activated charcoal at 55° C. for 30 minutes with continuous stirring followed by removal of the charcoal by centrifugation and filter sterilisation) and 2 mM L-glutamine (Invitrogen Ltd., Catalogue No. 25030-024) to give 6×10^4 cells per ml. […]

KDR (VEGFR2) = molecular target: T2, KDR (VEGFR2) (Homo sapiens, UniProt P35968); test: In vitro phospho-KDR ELISA assay in HUVECs (Test c); assay type: cell-based; conditions: HUVECs stimulated with VEGF, read-out: IC50 versus phospho-tyrosine formation in KDR
T2 construct: phosphorylation of KDR expressed in human umbilical vein endothelial cells (HUVECs); host or cells: HUVECs (primary human umbilical vein endothelial cells)
Method: This assay uses a conventional ELISA method to determine the ability of test compounds to inhibit phosphorylation of tyrosine in KDR (VEGFR2).
Human umbilical vein endothelial cells (HUVECs; PromoCell) were routinely incubated at 37° C. with 7.5% CO2 in ‘growth medium’ comprising MCDB 131 (Gibco Catalogue No. 10372-019; 500 ml) containing L-glutamine (Sigma Catalogue No. G3126; 0.848 g), 1% Penicillin Streptomycin (Gibco Catalogue No. 15140-122) and Fetal Bovine Serum (PAA Laboratories Catalogue No. A15-043; 50 ml).
For the assay, the cells were detached from the culture flask using a trypsin/ethylenediaminetetraacetic acid (EDTA) mixture (Invitrogen Ltd.; Catalogue No. 15400-054) and resuspended in ‘test medium’ comprising MCDB 131 (500 ml) containing L-glutamine (0.848 g), 1% Penicillin Streptomycin and Fetal Bovine Serum (10 ml). Aliquots (1 ml) were seeded into each well of a 24 well tissue culture plate (Corning Life Sciences; Catalogue No. 3527) to give a density of approximately 3.5×10^4 cells per well. The cells were incubated overnight at 37° C. with 7.5% CO2 to allow adherence to the well surface. The following morning the assay medium was decanted and an aliquot (0.5 ml) of ‘serum free medium’ comprising MCDB 131 (500 ml) containing L-glutamine (0.848 g) and 1% Penicillin Streptomycin was added to each well. The plates were incubated at 37° C. for 2.5 hours. […]

T1 sequence (P09619 33-1106): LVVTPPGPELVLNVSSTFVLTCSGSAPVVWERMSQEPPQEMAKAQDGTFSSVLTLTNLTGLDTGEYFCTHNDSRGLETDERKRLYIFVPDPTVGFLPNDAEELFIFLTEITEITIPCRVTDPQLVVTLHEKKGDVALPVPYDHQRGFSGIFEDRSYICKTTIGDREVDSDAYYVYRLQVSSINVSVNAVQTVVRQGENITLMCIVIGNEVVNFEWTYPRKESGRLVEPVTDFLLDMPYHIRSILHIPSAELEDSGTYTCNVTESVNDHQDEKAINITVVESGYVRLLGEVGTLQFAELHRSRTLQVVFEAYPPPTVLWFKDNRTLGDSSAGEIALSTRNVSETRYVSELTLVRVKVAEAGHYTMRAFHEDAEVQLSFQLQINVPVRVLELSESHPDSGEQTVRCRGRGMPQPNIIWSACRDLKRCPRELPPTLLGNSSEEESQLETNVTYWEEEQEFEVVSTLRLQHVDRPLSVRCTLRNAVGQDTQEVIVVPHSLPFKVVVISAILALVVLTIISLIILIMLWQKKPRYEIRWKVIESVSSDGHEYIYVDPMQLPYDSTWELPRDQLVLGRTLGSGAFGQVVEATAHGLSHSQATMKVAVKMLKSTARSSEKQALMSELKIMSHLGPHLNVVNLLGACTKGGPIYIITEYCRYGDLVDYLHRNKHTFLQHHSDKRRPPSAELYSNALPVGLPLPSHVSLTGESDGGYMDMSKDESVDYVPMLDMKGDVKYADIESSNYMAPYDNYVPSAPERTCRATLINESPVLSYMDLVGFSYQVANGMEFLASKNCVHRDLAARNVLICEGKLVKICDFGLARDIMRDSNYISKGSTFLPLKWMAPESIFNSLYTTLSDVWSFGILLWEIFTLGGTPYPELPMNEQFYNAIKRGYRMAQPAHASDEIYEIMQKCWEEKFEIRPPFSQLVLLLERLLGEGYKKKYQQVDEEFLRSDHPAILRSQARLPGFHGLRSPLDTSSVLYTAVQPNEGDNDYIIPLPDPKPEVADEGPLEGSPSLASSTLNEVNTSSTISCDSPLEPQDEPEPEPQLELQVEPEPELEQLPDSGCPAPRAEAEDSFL
T2 sequence (P35968 20-1356): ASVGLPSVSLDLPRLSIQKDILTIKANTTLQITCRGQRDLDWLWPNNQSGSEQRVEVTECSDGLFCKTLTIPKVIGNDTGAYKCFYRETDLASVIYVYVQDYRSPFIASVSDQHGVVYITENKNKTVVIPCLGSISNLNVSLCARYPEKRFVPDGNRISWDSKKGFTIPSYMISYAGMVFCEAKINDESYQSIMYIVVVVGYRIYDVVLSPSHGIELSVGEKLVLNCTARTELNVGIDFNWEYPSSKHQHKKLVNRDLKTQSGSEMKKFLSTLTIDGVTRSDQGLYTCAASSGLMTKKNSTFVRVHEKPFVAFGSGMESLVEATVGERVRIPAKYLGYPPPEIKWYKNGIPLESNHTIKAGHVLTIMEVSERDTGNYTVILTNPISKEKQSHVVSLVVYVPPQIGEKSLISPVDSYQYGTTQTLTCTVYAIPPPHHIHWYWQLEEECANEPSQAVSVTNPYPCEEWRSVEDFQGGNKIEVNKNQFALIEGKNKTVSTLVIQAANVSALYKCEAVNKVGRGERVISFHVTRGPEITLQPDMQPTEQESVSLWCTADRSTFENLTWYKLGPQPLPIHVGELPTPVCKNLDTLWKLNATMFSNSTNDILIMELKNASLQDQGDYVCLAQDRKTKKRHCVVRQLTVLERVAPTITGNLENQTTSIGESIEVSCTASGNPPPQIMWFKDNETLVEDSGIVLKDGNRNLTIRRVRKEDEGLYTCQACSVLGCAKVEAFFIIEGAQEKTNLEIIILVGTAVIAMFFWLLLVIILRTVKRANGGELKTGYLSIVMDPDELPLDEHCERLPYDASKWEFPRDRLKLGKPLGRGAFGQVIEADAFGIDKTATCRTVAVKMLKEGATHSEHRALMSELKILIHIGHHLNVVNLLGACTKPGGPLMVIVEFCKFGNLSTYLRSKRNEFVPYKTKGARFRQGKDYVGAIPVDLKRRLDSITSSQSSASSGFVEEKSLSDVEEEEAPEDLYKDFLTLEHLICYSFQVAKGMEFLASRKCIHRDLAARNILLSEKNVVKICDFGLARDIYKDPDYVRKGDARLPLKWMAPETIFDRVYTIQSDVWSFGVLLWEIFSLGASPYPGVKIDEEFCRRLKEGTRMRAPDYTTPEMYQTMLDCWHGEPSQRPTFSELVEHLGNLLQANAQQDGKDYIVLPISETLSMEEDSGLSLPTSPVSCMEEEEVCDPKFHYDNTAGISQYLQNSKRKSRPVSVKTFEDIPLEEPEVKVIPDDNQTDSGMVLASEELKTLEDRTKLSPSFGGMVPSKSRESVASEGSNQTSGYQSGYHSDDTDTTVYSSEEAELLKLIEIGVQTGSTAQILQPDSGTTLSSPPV

Structure (SMILES): CCn1cc(NC(=O)Cc2ncc(Oc3ccnc4cc(OC)c(OC)cc34)cn2)cn1 [Example 1, N-(1-ethylpyrazol-4-yl)-2-[5-(6,7-dimethoxyquinolin-4-yloxy)pyrimidin-2-yl]acetamide]
- IC50 (PDGFRβ): ~7 nM
- IC50 (KDR (VEGFR2)): ~1000 nM

Structure (SMILES): CCc1cc(NC(=O)Cc2ncc(Oc3ccnc4cc(OC)c(OC)cc34)cn2)n[nH]1 [N-(5-ethyl-1H-pyrazol-3-yl)-2-[5-(6,7-dimethoxyquinolin-4-yloxy)pyrimidin-2-yl]acetamide]
- IC50 (PDGFRβ): ~6 nM
- IC50 (KDR (VEGFR2)): ~700 nM
